Several values for one entry are separate records, joined by “and”; a condition that tells them apart may be missing. Equal entries are not always repeated. Toxic doses and inconclusive results are not listed.
Tested on: CD2F1 mice, L1210 leukemia sc, survival T/C
Assay: NCI In Vivo Anticancer Drug Screen. Data for tumor model L1210 Leukemia (subcutaneous) in CD2F1 (CDF1) mice
Details: endpoint: median survival time, higher = longer survival
How it was run: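 Mice with transplanted tumor dosed; survival/tumor size read; T/C vs vehicle controls.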

[1] = dose: 23.0 mg/kg/injection, schedule: Q01DX Z (sc), vehicle: water
[2] = dose: 39.0 mg/kg/injection, schedule: Q01DX Z (sc), vehicle: water
[3] = dose: 65.0 mg/kg/injection, schedule: Q01DX Z (sc), vehicle: water

COCCCNc1ncnc2[nH]ncc12
T/C [1]: 100 % of control
T/C [2]: 100 % of control
T/C [3]: 100 % of control
T/C (dose: 108.0 mg/kg/injection, schedule: Q01DX Z (sc), vehicle: water): 100 % of control
T/C (dose: 180.0 mg/kg/injection, schedule: Q01DX Z (sc), vehicle: water): 109 % of control
T/C (dose: 300.0 mg/kg/injection, schedule: Q01DX Z (sc), vehicle: water): 109 % of control

CN(Cc1cnc2nc(N)nc(N)c2n1)c1c(Cl)cc(C(=O)NC(CCC(=O)O)C(=O)O)cc1Cl (configuration not stated)
T/C (dose: 5.83 mg/kg/injection, schedule: Q#A X Z (oral), vehicle: other): 163 % of control
T/C (dose: 8.1 mg/kg/injection, schedule: Q#A X Z (oral), vehicle: other): 220 % of control
T/C (dose: 8.1 mg/kg/injection, schedule: Q#A X Z (sc), vehicle: other): 655 % of control
T/C (dose: 9.72 mg/kg/injection, schedule: Q#A X Z (oral), vehicle: other): 204 % of control
T/C (dose: 9.72 mg/kg/injection, schedule: Q#A X Z (sc), vehicle: other): 345 % of control
T/C (dose: 13.5 mg/kg/injection, schedule: Q#A X Z (oral), vehicle: other): 230 % of control
T/C (dose: 13.5 mg/kg/injection, schedule: Q#A X Z (sc), vehicle: other): 730 % of control
T/C (dose: 16.2 mg/kg/injection, schedule: Q#A X Z (sc), vehicle: other): 322 % of control
T/C (dose: 22.5 mg/kg/injection, schedule: Q#A X Z (oral), vehicle: other): 190 % of control
T/C (dose: 22.5 mg/kg/injection, schedule: Q#A X Z (sc), vehicle: other): 690 % of control
T/C (dose: 25.0 mg/kg/injection, schedule: Q01DX Z (sc), vehicle: other): 500 % of control
T/C (dose: 27.0 mg/kg/injection, schedule: Q01DX Z (oral), vehicle: other): 186 % of control and 215 % of control
T/C (dose: 27.0 mg/kg/injection, schedule: Q01DX Z (sc), vehicle: other): 331 % of control and 565 % of control and 900 % of control
T/C (dose: 27.0 mg/kg/injection, schedule: Q#A X Z (sc), vehicle: other): 786 % of control
T/C (dose: 28.0 mg/kg/injection, schedule: Q01DX Z (oral), vehicle: other): 194 % of control
T/C (dose: 37.5 mg/kg/injection, schedule: Q#A X Z (oral), vehicle: other): 175 % of control
T/C (dose: 37.5 mg/kg/injection, schedule: Q#A X Z (sc), vehicle: other): 565 % of control
T/C (dose: 45.0 mg/kg/injection, schedule: Q01DX Z (oral), vehicle: other): 181 % of control and 210 % of control
T/C (dose: 45.0 mg/kg/injection, schedule: Q01DX Z (sc), vehicle: other): 363 % of control and 825 % of control
T/C (dose: 47.0 mg/kg/injection, schedule: Q01DX Z (oral), vehicle: other): 222 % of control
T/C (dose: 47.0 mg/kg/injection, schedule: Q01DX Z (sc), vehicle: other): 816 % of control
T/C (dose: 50.0 mg/kg/injection, schedule: Q01DX Z (sc), vehicle: other): 500 % of control
T/C (dose: 62.5 mg/kg/injection, schedule: Q#A X Z (sc), vehicle: other): 175 % of control
T/C (dose: 75.0 mg/kg/injection, schedule: Q01DX Z (oral), vehicle: other): 159 % of control and 190 % of control
T/C (dose: 75.0 mg/kg/injection, schedule: Q01DX Z (sc), vehicle: other): 231 % of control and 554 % of control and 800 % of control
T/C (dose: 75.0 mg/kg/injection, schedule: Q03DX Z (oral), vehicle: other): 100 % of control
T/C (dose: 75.0 mg/kg/injection, schedule: Q#A X Z (oral), vehicle: other): 122 % of control
T/C (dose: 78.0 mg/kg/injection, schedule: Q01DX Z (oral), vehicle: other): 188 % of control
T/C (dose: 78.0 mg/kg/injection, schedule: Q01DX Z (sc), vehicle: other): 272 % of control
T/C (dose: 108.0 mg/kg/injection, schedule: Q## X Z (oral), vehicle: other): 110 % of control
T/C (dose: 108.0 mg/kg/injection, schedule: Q## X Z (sc), vehicle: other): 115 % of control
T/C (dose: 125.0 mg/kg/injection, schedule: Q01DX Z (oral), vehicle: other): 172 % of control and 200 % of control
T/C (dose: 125.0 mg/kg/injection, schedule: Q01DX Z (sc), vehicle: other): 205 % of control
T/C (dose: 125.0 mg/kg/injection, schedule: Q03DX Z (oral), vehicle: other): 100 % of control
T/C (dose: 125.0 mg/kg/injection, schedule: Q03DX Z (sc), vehicle: other): 513 % of control
T/C (dose: 130.0 mg/kg/injection, schedule: Q01DX Z (oral), vehicle: other): 200 % of control
T/C (dose: 130.0 mg/kg/injection, schedule: Q01DX Z (sc), vehicle: other): 194 % of control
T/C (dose: 180.0 mg/kg/injection, schedule: Q## X Z (oral), vehicle: other): 115 % of control
T/C (dose: 180.0 mg/kg/injection, schedule: Q## X Z (sc), vehicle: other): 115 % of control
T/C (dose: 208.0 mg/kg/injection, schedule: Q03DX Z (oral), vehicle: other): 113 % of control
T/C (dose: 208.0 mg/kg/injection, schedule: Q03DX Z (sc), vehicle: other): 272 % of control
T/C (dose: 216.0 mg/kg/injection, schedule: Q01DX Z (oral), vehicle: other): 172 % of control
T/C (dose: 216.0 mg/kg/injection, schedule: Q01DX Z (sc), vehicle: other): 155 % of control
T/C (dose: 250.0 mg/kg/injection, schedule: Q## X Z (sc), vehicle: other): 500 % of control
T/C (dose: 300.0 mg/kg/injection, schedule: Q## X Z (oral), vehicle: other): 110 % of control
T/C (dose: 300.0 mg/kg/injection, schedule: Q## X Z (sc), vehicle: other): 120 % of control
T/C (dose: 347.0 mg/kg/injection, schedule: Q03DX Z (oral), vehicle: other): 109 % of control
T/C (dose: 347.0 mg/kg/injection, schedule: Q03DX Z (sc), vehicle: other): 195 % of control
T/C (dose: 360.0 mg/kg/injection, schedule: Q01DX Z (oral), vehicle: other): 166 % of control
T/C (dose: 500.0 mg/kg/injection, schedule: Q## X Z (oral), vehicle: other): 115 % of control
T/C (dose: 500.0 mg/kg/injection, schedule: Q## X Z (sc), vehicle: other): 370 % of control and 500 % of control
T/C (dose: 577.0 mg/kg/injection, schedule: Q03DX Z (oral), vehicle: other): 150 % of control
T/C (dose: 577.0 mg/kg/injection, schedule: Q03DX Z (sc), vehicle: other): 209 % of control
T/C (dose: 833.0 mg/kg/injection, schedule: Q## X Z (oral), vehicle: other): 155 % of control
T/C (dose: 833.0 mg/kg/injection, schedule: Q## X Z (sc), vehicle: other): 360 % of control
T/C (dose: 961.0 mg/kg/injection, schedule: Q03DX Z (oral), vehicle: other): 122 % of control
T/C (dose: 961.0 mg/kg/injection, schedule: Q03DX Z (sc), vehicle: other): 172 % of control

O=C(Nc1ccc(C2=NCCN2)cc1)c1ccc(C(=O)Nc2ccc(C3=NCCN3)cc2)c(Cl)c1
T/C (dose: 5.0 mg/kg/injection, schedule: Q01DX Z (iv), vehicle: water): 100 % of control
T/C (dose: 8.4 mg/kg/injection, schedule: Q01DX Z (iv), vehicle: water): 100 % of control
T/C (dose: 8.4 mg/kg/injection, schedule: Q01DX Z (sc), vehicle: water): 120 % of control and 227 % of control
T/C (dose: 14.0 mg/kg/injection, schedule: Q01DX Z (iv), vehicle: water): 100 % of control
T/C (dose: 14.0 mg/kg/injection, schedule: Q01DX Z (sc), vehicle: water): 188 % of control and 195 % of control and 233 % of control
T/C [1]: 205 % of control and 220 % of control and 261 % of control
T/C (dose: 39.0 mg/kg/injection, schedule: Q01DX Z (iv), vehicle: water): 111 % of control
T/C [2]: 211 % of control and 225 % of control and 183 % of control
T/C (dose: 65.0 mg/kg/injection, schedule: Q01DX Z (iv), vehicle: water): 155 % of control
T/C [3]: 188 % of control and 200 % of control and 166 % of control

CCOC(C)C(/C=N/NC(N)=S)=NNC(N)=S (configuration not stated)
T/C (dose: 65.0 mg/kg/injection, schedule: Q01DX Z (sc), vehicle: carboxymethylcellulose (CMC)): 110 % of control
T/C (dose: 108.0 mg/kg/injection, schedule: Q01DX Z (sc), vehicle: carboxymethylcellulose (CMC)): 110 % of control
T/C (dose: 180.0 mg/kg/injection, schedule: Q01DX Z (sc), vehicle: carboxymethylcellulose (CMC)): 120 % of control
T/C (dose: 300.0 mg/kg/injection, schedule: Q01DX Z (sc), vehicle: carboxymethylcellulose (CMC)): 110 % of control
